Test results published in US20240216413A1, “THIONUCLEOSIDES AS ANTIVIRAL AGENTS” (priority 2021, published 2024).
pEC50: −log10 of the molar value. Where two headings read alike, the source gives them in different places.

Columns and labels:
Assay type in all cases: cell-based
SARS-CoV-2 variant Gamma [1] = experiment: microbe, parasite or virus in culture; settings: for pEC50: read-out: Antiviral Activity Against SARS-CoV-2 Variants in Vero EC50, Gamma; for EC90: read-out: Antiviral Activity Against SARS-CoV-2 Variants in Vero EC90, Gamma
SARS-CoV-2 variant Gamma [2] = experiment: microbe, parasite or virus in culture
SARS-CoV-2 variant Delta = experiment: microbe, parasite or virus in culture
SARS-CoV-2 variant Alpha [3] = experiment: microbe, parasite or virus in culture; settings: for pEC50: read-out: Antiviral Activity Against SARS-CoV-2 Variants in Vero EC50, Alpha; for EC90: read-out: Antiviral Activity Against SARS-CoV-2 Variants in Vero EC90, Alpha
SARS-CoV-2 variant Alpha [4] = experiment: microbe, parasite or virus in culture
[5] = test system: SARS-CoV-2 Lineage A (Eng); experiment: Antiviral activity against SARS-CoV-2 Lineage A (Eng) in Vero; settings: for pEC50: read-out: Antiviral Activity Against SARS-CoV-2 Variants in Vero EC50, Lineage A (Eng); for EC90: read-out: Antiviral Activity Against SARS-CoV-2 Variants in Vero EC90, Lineage A (Eng)
[6] = test system: SARS-CoV-2 Lineage A (Wa); experiment: Antiviral activity against SARS-CoV-2 Lineage A (Wa) in Calu3
SARS-CoV-2 variant Beta [7] = experiment: microbe, parasite or virus in culture; settings: for pEC50: read-out: Antiviral Activity Against SARS-CoV-2 Variants in Vero EC50, Beta; for EC90: read-out: Antiviral Activity Against SARS-CoV-2 Variants in Vero EC90, Beta
[8] = test system: SARS-CoV-2 Lineage A (Wa); experiment: Antiviral activity against SARS-CoV-2 Lineage A (Wa) in Vero; settings: read-out: Antiviral Activity Against SARS-CoV-2 Variants in Vero EC50, Lineage A (Wa)
[9] = test system: SARS-CoV-2 Lineage A (Eng); experiment: Antiviral activity against SARS-CoV-2 Lineage A (Eng) in Calu3
SARS-CoV-2 variant Beta [10] = experiment: microbe, parasite or virus in culture; settings: Severe acute respiratory syndrome coronavirus 2, Calu-3, read-out: Antiviral Activity Against SARS-CoV-2 Variants in Calu3 EC50, Beta
[11] = Severe acute respiratory syndrome coronavirus 2, Vero
[12] = Severe acute respiratory syndrome coronavirus 2, Gamma, Vero
[13] = Severe acute respiratory syndrome coronavirus 2, Alpha, Vero
[14] = Severe acute respiratory syndrome coronavirus 2, Lineage A (Eng), Vero
[15] = Severe acute respiratory syndrome coronavirus 2, Beta, Vero

With O=c1ccn([C@@H]2S[C@H](CO)[C@@H](O)[C@H]2O)c(=O)[nH]1 [Compound 8, 1-((2R,3R,4S,5R)-3,4-dihydroxy-5-(hydroxymethyl)tetrahydrothiophen-2-yl)pyrimidine-2,4(1H,3H)-dione] the pEC50 (SARS-CoV-2 variant Gamma [1]; [11]) was 6.70, the EC90 (SARS-CoV-2 variant Gamma [1]; [11]) was 300 nM and the pEC50 (SARS-CoV-2 variant Gamma [2]; Severe acute respiratory syndrome coronavirus 2, Calu-3, read-out: Antiviral Activity Against SARS-CoV-2 Variants in Calu3 EC50, Gamma) was 7.40. The EC90 (SARS-CoV-2 variant Gamma [2]; Severe acute respiratory syndrome coronavirus 2, Calu-3, read-out: Antiviral Activity Against SARS-CoV-2 Variants in Calu3 EC90, Gamma) was 100 nM, the pEC50 (SARS-CoV-2 variant Delta; Severe acute respiratory syndrome coronavirus 2, Calu-3, read-out: Antiviral Activity Against SARS-CoV-2 Variants in Calu3 EC50, Delta) was 5.74 and the EC90 (SARS-CoV-2 variant Delta; Severe acute respiratory syndrome coronavirus 2, Calu-3, read-out: Antiviral Activity Against SARS-CoV-2 Variants in Calu3 EC90, Delta) was 3600 nM. The pEC50 (SARS-CoV-2 variant Alpha [3]; [11]) was 6.52, the EC90 (SARS-CoV-2 variant Alpha [3]; [11]) was 1400 nM and the pEC50 (SARS-CoV-2 variant Alpha [4]; Severe acute respiratory syndrome coronavirus 2, Calu-3, read-out: Antiviral Activity Against SARS-CoV-2 Variants in Calu3 EC50, Alpha) was 6.52. The pEC50 [5, 11] was 6.70, the EC90 [5, 11] was 400 nM and the pEC50 ([6]; Severe acute respiratory syndrome coronavirus 2, Calu-3, read-out: Antiviral Activity Against SARS-CoV-2 Variants in Calu3 EC50, Lineage A (Wa)) was 7.00. It also gave an EC90 ([6]; Severe acute respiratory syndrome coronavirus 2, Calu-3, read-out: Antiviral Activity Against SARS-CoV-2 Variants in Calu3 EC90, Lineage A (Wa)) of 400 nM, a pEC50 (SARS-CoV-2 variant Beta [7]; [11]) of 6.10 and an EC90 (SARS-CoV-2 variant Beta [7]; [11]) of 1000 nM. It also gave a pEC50 [8, 11] of 6.10, an EC90 ([9]; Severe acute respiratory syndrome coronavirus 2, Calu-3, read-out: Antiviral Activity Against SARS-CoV-2 Variants in Calu3 EC90, Lineage A (Eng)) of 4500 nM and a pEC50 (SARS-CoV-2 variant Beta [10]) of 5.96.
Molecule CCC(CC)COC(=O)[C@H](C)N[P@](=O)(OC[C@H]1O[C@@](C#N)(c2ccc3c(N)ncnn23)[C@H](O)[C@@H]1O)Oc1ccccc1 [Remdesivir, reference compound] has a pEC50 (SARS-CoV-2 variant Gamma [1]; [12]) of 6.52, an EC90 (SARS-CoV-2 variant Gamma [1]; [12]) of 2100 nM and a pEC50 (SARS-CoV-2 variant Gamma [2]; Severe acute respiratory syndrome coronavirus 2, Calu-3, Gamma, Calu3, read-out: Antiviral Activity Against SARS-CoV-2 Variants in Calu3 EC50, Gamma) of 6.59. For the same molecule, the EC90 (SARS-CoV-2 variant Gamma [2]; Severe acute respiratory syndrome coronavirus 2, Calu-3, Gamma, Calu3, read-out: Antiviral Activity Against SARS-CoV-2 Variants in Calu3 EC90, Gamma) was 300 nM, the pEC50 (SARS-CoV-2 variant Delta; Severe acute respiratory syndrome coronavirus 2, Calu-3, Delta, Calu3, read-out: Antiviral Activity Against SARS-CoV-2 Variants in Calu3 EC50, Delta) was 6.52 and the EC90 (SARS-CoV-2 variant Delta; Severe acute respiratory syndrome coronavirus 2, Calu-3, Delta, Calu3, read-out: Antiviral Activity Against SARS-CoV-2 Variants in Calu3 EC90, Delta) was 2300 nM. The pEC50 (SARS-CoV-2 variant Alpha [3]; [13]) was 6.40, the EC90 (SARS-CoV-2 variant Alpha [3]; [13]) was 1600 nM and the pEC50 (SARS-CoV-2 variant Alpha [4]; Severe acute respiratory syndrome coronavirus 2, Calu-3, Alpha, Calu3, read-out: Antiviral Activity Against SARS-CoV-2 Variants in Calu3 EC50, Alpha) was 6.52. It also gave an EC90 (SARS-CoV-2 variant Alpha [4]; Severe acute respiratory syndrome coronavirus 2, Calu-3, Alpha, Calu3, read-out: Antiviral Activity Against SARS-CoV-2 Variants in Calu3 EC90, Alpha) of 400 nM, a pEC50 [5, 14] of 6.52 and an EC90 [5, 14] of 2900 nM. The pEC50 ([6]; Severe acute respiratory syndrome coronavirus 2, Calu-3, Lineage A (Wa), Calu3, read-out: Antiviral Activity Against SARS-CoV-2 Variants in Calu3 EC50, Lineage A (Wa)) was 7.00, the EC90 ([6]; Severe acute respiratory syndrome coronavirus 2, Calu-3, Lineage A (Wa), Calu3, read-out: Antiviral Activity Against SARS-CoV-2 Variants in Calu3 EC90, Lineage A (Wa)) was 400 nM and the pEC50 (SARS-CoV-2 variant Beta [7]; [15]) was 5.96. For the same molecule, the EC90 (SARS-CoV-2 variant Beta [7]; [15]) was 2200 nM, the pEC50 ([8]; Severe acute respiratory syndrome coronavirus 2, Lineage A (Wa), Vero) was 6.70 and the pEC50 ([9]; Severe acute respiratory syndrome coronavirus 2, Calu-3, Lineage A (Eng), Calu3, read-out: Antiviral Activity Against SARS-CoV-2 Variants in Calu3 EC50, Lineage A (Eng)) was 7.70. It also gave an EC90 ([9]; Severe acute respiratory syndrome coronavirus 2, Calu-3, Lineage A (Eng), Calu3, read-out: Antiviral Activity Against SARS-CoV-2 Variants in Calu3 EC90, Lineage A (Eng)) of 300 nM.
